We go through 9 substances from publication PMC3018327 (Nature immunology, 2010).

In assay [1] the test system is DR1 linked to DM. As to conditions: leucine zipper dimerization domains attached to DMβ and DRβ chains; cited from earlier work.
The subject of assay [2] is DR1. As to conditions: cited from earlier work.
In assay [3] the test system is DR4. The following applies: cited from earlier work.
Assay [4] has as its target HLA-DM (Homo sapiens, UniProt P28067+P28068, N110D/N191D). As to the kind of experiment: SPR. The following applies: complexes 5 μM injected 2 min, pH 5.35, 15 μl/min, 25 °C, Fig. 4d-f.
Assay [5] concerns DM-DR2 complex. The assay can be described thus: SPR peptide-induced dissociation of the complex of DM and empty DR2. As to conditions: SPR stage 3, peptide 1 μM, pH 5.35, 30 °C; Fig. 1e. The class given is binding, human.

Chain of HLA-DM (P28067 27-233 N191D): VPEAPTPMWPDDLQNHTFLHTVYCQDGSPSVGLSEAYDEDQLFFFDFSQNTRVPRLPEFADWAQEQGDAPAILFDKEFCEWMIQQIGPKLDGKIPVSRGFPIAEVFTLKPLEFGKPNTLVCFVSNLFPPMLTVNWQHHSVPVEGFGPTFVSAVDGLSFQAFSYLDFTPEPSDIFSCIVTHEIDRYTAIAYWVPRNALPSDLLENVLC
Chain of HLA-DM (P28068 19-218 N110D): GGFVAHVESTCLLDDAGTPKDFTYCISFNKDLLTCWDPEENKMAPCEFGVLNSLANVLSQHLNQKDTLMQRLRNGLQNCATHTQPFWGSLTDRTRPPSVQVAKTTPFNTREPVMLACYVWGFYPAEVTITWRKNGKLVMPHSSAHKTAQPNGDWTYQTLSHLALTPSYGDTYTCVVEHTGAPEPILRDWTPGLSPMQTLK

In the case of PVSKMRMATPLLMQA [CLIP], the “t1/2 of peptide dissociation from DR1 forcibly linked to DM” value in assay [1] is 10 s. For the same substance, in assay [2], the “affinity of CLIP for DR1” value was “high affinity”. Further, the “affinity of CLIP for DR4” value in assay [3] is on record as “very low affinity”.

For KYVKQNCLKLAT [HA6 P-1–P11], in assay [4], the “DM binding of DR1 complexes with disulfide-linked HA6 or HA3 peptides” value (shortened to “DM binding of DR1 complexes”) is reported as “not sufficient for DM binding”.

Turning to VKQNCLKLAT [HA6 P2–P11], the “DM binding of DR1 complexes” value in assay [4] was “strong DM binding”.

Turning to CQNTLKLAT [HA3 P3 P11], in assay [4], the “DM binding of DR1 complexes” value was “appeared to slow DM binding”.

Regarding Me-YVCQNTLKLAT [HA3 P1me–P11], the “DM binding of DR1 complexes” value in assay [4] is “did not permit DM binding”.

On to YVKQNCLKLAT [HA6 P1–P11], for which, in assay [4], the “DM binding of DR1 complexes” value was “not sufficient for DM binding”.

With PKAVKQNCLKLAT [HA6 P1A], in assay [4], the “DM binding of DR1 complexes” value is “only low amounts of DM binding”.

Take VCQNTLKLAT [HA3 P2–P11]: the “DM binding of DR1 complexes” value in assay [4] was “rapid binding”.

For the substance “MBP85-99: high-affinity peptide from myelin basic protein (amino acids 85–99) (PGSRPHLIRLFSRDA; UniProt P02686 85-99, looked up, fragment)”, in assay [5], the “peptide-induced dissociation of DR2 from DM” value is listed as “induced dissociation of DR2 from DM”.
